Tests used:
BT-474 Tam1 [1] = experiment: drug sensitivity score (DSS) (DSS (dimensionless)); higher = more sensitive; extreme values may be limits of the assay; settings: 4-OH-tamoxifen in medium 1 µM; 72 h
Protocol: (§1)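 FIMM FO2B library drugs were tested at 5 concentrations (10,000-fold range) for 72 h, with CellTiter-Glo viability normalised to DMSO and benzethonium chloride controls. The Drug Sensitivity Score (DSS) is computed from the fitted logistic dose-response curve (area-based; 0 = inactive). Resistant lines and the 'in 1µM tamoxifen' arms were tested in 1 µM 4-OH-tamoxifen.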

BT-474 Tam2 [2] = experiment: as above; settings: 4-OH-tamoxifen in medium 1 µM; 72 h
Protocol: as §1

BT-474 [3] = experiment: as above; settings: 72 h
Protocol: as §1

MCF-7 Tam1 = experiment: as above; settings: 4-OH-tamoxifen in medium 1 µM; 72 h
Protocol: as §1

MCF-7 [4] = experiment: as above; settings: 72 h
Protocol: as §1

T-47D Tam1 [5] = experiment: as above; settings: 4-OH-tamoxifen in medium 1 µM; 72 h
Protocol: as §1

T-47D Tam2 [6] = experiment: as above; settings: 4-OH-tamoxifen in medium 1 µM; 72 h
Protocol: as §1

T-47D [7] = experiment: as above; settings: 72 h
Protocol: as §1

ZR-75-1 Tam1 [8] = experiment: as above; settings: 4-OH-tamoxifen in medium 1 µM; 72 h
Protocol: as §1

ZR-75-1 Tam2 [9] = experiment: as above; settings: 4-OH-tamoxifen in medium 1 µM; 72 h
Protocol: as §1

ZR-75-1 [10] = experiment: as above; settings: 72 h
Protocol: as §1

BT-474 Tam1 [11] = experiment: relative IC50 (midpoint of fitted logistic curve, plateau may be below 50% inhibition; CellTiter-Glo viability); higher = less potent; settings: 4-OH-tamoxifen in medium 1 µM; 72 h
Summary of the method: (§2)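 Breast cancer cell lines and their resistant derivatives were seeded into 384-well plates holding FO2Baq library drugs at five concentrations spanning a 10 000-fold range. Resistant lines were in medium with 1 μM of the selecting drug. Cells were incubated 72 h at 37 °C, and CellTiter-Glo viability was read on a PHERAstar and normalised to vehicle-only and positive controls. Drug sensitivity score, relative IC50 (curve midpoint) and top-dose inhibition came from logistic dose–response fits (Breeze pipeline).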

BT-474 Tam2 [12] = experiment: as above; settings: 4-OH-tamoxifen in medium 1 µM; 72 h
Summary of the method: as §2

BT-474 [13] = experiment: as above; settings: 72 h
Summary of the method: as §2

T-47D Tam2 [14] = experiment: as above; settings: 4-OH-tamoxifen in medium 1 µM; 72 h
Summary of the method: as §2

T-47D [15] = experiment: as above; settings: 72 h
Summary of the method: as §2

ZR-75-1 Tam2 [16] = experiment: as above; settings: 4-OH-tamoxifen in medium 1 µM; 72 h
Summary of the method: as §2

ZR-75-1 [17] = experiment: as above; settings: 72 h
Summary of the method: as §2

MCF-7 [18] = experiment: as above; settings: 72 h
Summary of the method: as §2

ZR-75-1 Tam1 [19] = experiment: as above; settings: 4-OH-tamoxifen in medium 1 µM; 72 h
Summary of the method: as §2

T-47D Tam1 [20] = experiment: as above; settings: 4-OH-tamoxifen in medium 1 µM; 72 h
Summary of the method: as §2

SMILES	drug sensitivity score (BT-474 Tam1 [1])	drug sensitivity score (BT-474 Tam2 [2])	drug sensitivity score (BT-474 [3]; 4-OH-tamoxifen in medium 0 µM)	drug sensitivity score (BT-474 [3]; 4-OH-tamoxifen in medium 1 µM)	drug sensitivity score (MCF-7 Tam1)	drug sensitivity score (MCF-7 [4]; 4-OH-tamoxifen in medium 0 µM)	drug sensitivity score (MCF-7 [4]; 4-OH-tamoxifen in medium 1 µM)	drug sensitivity score (T-47D Tam1 [5])	drug sensitivity score (T-47D Tam2 [6])	drug sensitivity score (T-47D [7]; 4-OH-tamoxifen in medium 0 µM)	drug sensitivity score (T-47D [7]; 4-OH-tamoxifen in medium 1 µM)	drug sensitivity score (ZR-75-1 Tam1 [8])	drug sensitivity score (ZR-75-1 Tam2 [9])	drug sensitivity score (ZR-75-1 [10]; 4-OH-tamoxifen in medium 0 µM)	drug sensitivity score (ZR-75-1 [10]; 4-OH-tamoxifen in medium 1 µM)	relative IC50 (BT-474 Tam1 [11]) [nM]	relative IC50 (BT-474 Tam2 [12]) [nM]	relative IC50 (BT-474 [13]; 4-OH-tamoxifen in medium 0 µM) [nM]	relative IC50 (BT-474 [13]; 4-OH-tamoxifen in medium 1 µM) [nM]	relative IC50 (T-47D Tam2 [14]) [nM]	relative IC50 (T-47D [15]; 4-OH-tamoxifen in medium 0 µM) [nM]	relative IC50 (T-47D [15]; 4-OH-tamoxifen in medium 1 µM) [nM]	relative IC50 (ZR-75-1 Tam2 [16]) [nM]	relative IC50 (ZR-75-1 [17]; 4-OH-tamoxifen in medium 1 µM) [nM]	relative IC50 (MCF-7 [18]; 4-OH-tamoxifen in medium 0 µM) [nM]	relative IC50 (MCF-7 [18]; 4-OH-tamoxifen in medium 1 µM) [nM]	relative IC50 (ZR-75-1 Tam1 [19]) [nM]	relative IC50 (T-47D Tam1 [20]) [nM]	relative IC50 (ZR-75-1 [17]; 4-OH-tamoxifen in medium 0 µM) [nM]
CCC/C=C/C=C/C(=O)O[C@H]1/C(=C/C(=O)OC)C[C@H]2C[C@H]([C@@H](C)O)OC(=O)C[C@H](O)C[C@@H]3C[C@H](OC(C)=O)C(C)(C)[C@](O)(C[C@@H]4C/C(=C/C(=O)OC)C[C@H](/C=C/C(C)(C)[C@]1(O)O2)O4)O3 [Bryostatin 1]	0	0	0	0	1.73	1.22	0.563	0.0014	0	0	0	1.05	0	0.213	0	> 100	> 100	> 100	> 100	> 100	> 100	> 100	> 100	> 100					
C=C(c1ccc(C(=O)O)cc1)c1cc2c(cc1C)C(C)(C)CCC2(C)C [Bexarotene]	0	0	0	0.345	3.15	0	0	3.44	0	0.69	0.469	0	0.973	0.367	0.925	> 10000	> 10000	> 10000		> 10000					> 10000	> 10000	> 10000		
CC(C)n1cnc2c(NCCc3ccc(O)cc3)nc(-c3csc4ccccc34)nc21 [StemRegenin 1]	7.32	5.49	1.47	5.07	0.218	1.85	11.7	1.95	4.97	1.21	2.41	0.327	1.51	0	0.414	2120	2830		3380	1570	4120	3480			4400	335		3410	
CC[C@@H]1C(=O)N(C)c2cnc(Nc3ccc(C(=O)NC4CCN(C)CC4)cc3OC)nc2N1C1CCCC1 [BI 2536]	1.24	0.933	3.73	7.89	0	3.44	10.1	3.5	4.25	3.7	0.711	1	1.18	2.89	2.08			28.5	20.4	75.4					109			67.8	
C#Cc1cccc(Nc2ncnc3cc(OCCOC)c(OCCOC)cc23)c1 [Erlotinib]	9.3	7.08	3.4	9.97	0.0215	0	0	3.91	5.31	0.57	0	0.136	0.0461	0	0.0315	1370	1960	1770	1250	370		> 10000			> 10000	> 10000		1230	> 10000
CC(=O)OC[C@H]1O[C@@H]([S-])[C@H](OC(C)=O)[C@@H](OC(C)=O)[C@@H]1OC(C)=O.CCP(CC)CC.[Au+] [Auranofin]	5	3.68	3.43	4.22	1.48	6.78	2.93	11.5	4.19	1.36	4.22	0.421	0.324	0.254	1.38	853	785	719	1020	584	804	223			561	376		65.3	
C[C@]12O[C@H](C[C@]1(O)CO)n1c3ccccc3c3c4c(c5c6ccccc6n2c5c31)CNC4=O [Lestaurtinib]	2.16	0.589	0.345	3.7	0.391	0.382	0	0	0	0	0.579	0	0.0147	0	0	349			160	> 1000	> 1000					> 1000	> 1000	> 1000	> 1000
CCc1cncnc1N1CCN(Cc2nc3ccc(C(F)(F)F)cc3[nH]2)CC1	3.7	2.05	1.64	2.18	0.774	1.96	2.72	2.79	1.89	2.8	0.435	0.834	1.31	0.27	1.12	3230	3220	3300	4060	2310	1530				2920	1100		1570	

From the supplement of paper PMC4932681
